Drawing on patent publication US10370333B2 (Sanford Burnham Prebys Medical Discovery Institute, priority 2012, dated 2019), this text covers IC50 for 37 compounds.

Each structure is given as a SMILES string.

This assay has as its target TNAP (Homo sapiens (Human), UniProt P05186). Kind of assay: TNAP (PPi) inhibition assay, pyrophosphate as substrate. The assay is classed as biochemical. As to the method:
Expression plasmids containing a secreted epitope-tagged TNAP were transfected into COS-1 cells for transient expression. The medium was replaced with Opti-MEM 24 h later and serum-free media containing secreted proteins was collected 60 hours after electroporation. The medium was dialyzed against TBS containing 1 mM MgCl2 and […] (to remove phosphate) and filtered through a […] cellulose acetate filter.
To determine the inhibition selectivity for inhibitor candidates, human TNAP, PLAP or IAP were added to microtiter plates followed by addition of the substrate pNPP (0.5 mM) and activity was measured in 1 M DEA-HCl buffer, pH 9.8 or in 1 M Tris-HCl buffer, pH 7.5, containing 1 mM MgCl2 and 20 μM ZnCl2, in the presence of potential inhibitors (0-30 μM). TNAP, PLAP and IAP activities were adjusted to an approximate λA405 nm, equivalent to 1, measured after 30 min. Residual AP activity in the presence of inhibitors was expressed as percentage of the control activity. To investigate the mechanism of inhibition, double reciprocal plots of enzyme activity (expressed as mA405 nm min−1) vs. substrate concentration were constructed, in the presence of various concentrations of added inhibitors (0-30 μM). The y-axis intercepts of the 1/v vs. 1/[S] plots, were then plotted vs. [I] to graphically extract Ki values as the x-intercept in this plot. […] Inhibitors were further tested and sorted based on their kinetic properties at pH 7.4 using PPi, the relevant natural substrate of TNAP. […] Amounts of released phosphate were measured using the Biomol Green Reagent (Biomol Research Laboratories, Inc., Plymouth Meeting, Pa.).

As a reminder, the IC50 is the point on the concentration scale where inhibition reaches its midpoint. Higher therefore signals weaker potency. The compound `COc1ccc(OC)c(S(=O)(=O)Nc2cncc(-c3ccc(O)cc3)c2)c1` [Example III-7, N-[5-(4-Hydroxy-phenyl)-pyridin-3-yl]-2,5-dimethoxy-benzenesulfonamide] displayed an IC50 below 100 nM.

`COc1ccc(Br)cc1S(=O)(=O)Nc1cncc(-c2ccc(O)cc2)c1` [Example III-8, 5-Bromo-N-[5-(4-hydroxy-phenyl)-pyridin-3-yl]-2-methoxy-benzenesulfonamide]: the IC50 is below 100 nM.

Regarding `COc1ccc(OC)c(S(=O)(=O)Nc2cncc(-c3ccc(C)cc3)c2)c1` [Example III-10, 2,5-Dimethoxy-N-(5-p-tolyl-pyridin-3-yl)-benzenesulfonamide], the IC50 lay within 100 to 1000 nM.

In the case of `COc1ccc(Br)cc1S(=O)(=O)Nc1cncc(-c2ccc(C)cc2)c1` [Example III-11, 5-Bromo-2-methoxy-N-(5-p-tolyl-pyridin-3-yl)-benzenesulfonamide], the IC50 lay in the range of 100 to 1000 nM.

`COc1ccc(OC)c(S(=O)(=O)Nc2cncc(-c3ccc(C(F)(F)F)cc3)c2)c1` [Example III-13, 2,5-Dimethoxy-N-(5-(4-(trifluoromethyl)phenyl)pyridin-3-yl)benzenesulfonamide] returned an IC50 of 100 to 1000 nM.

Compound `COc1ccc(Br)cc1S(=O)(=O)Nc1cncc(-c2ccc(C(F)(F)F)cc2)c1` [Example III-14, 5-Bromo-2-methoxy-N-(5-(4-(trifluoromethyl)phenyl)pyridin-3-yl)benzenesulfonamide] registered an IC50 of 100 to 1000 nM.

`COc1ccc(Cl)cc1S(=O)(=O)Nc1cncc(-c2ccc(C(F)(F)F)cc2)c1` [Example III-15, 5-Chloro-2-methoxy-N-(5-(4-(trifluoromethyl)phenyl)pyridin-3-yl)benzenesulfonamide]: the IC50 lay in the range of 100 to 1000 nM.

As to `COc1ccc(OC)c(S(=O)(=O)Nc2cncc(-c3ccc(F)cc3)c2)c1` [Example III-16, N-[5-(4-Fluoro-phenyl)-pyridin-3-yl]-2,5-dimethoxy-benzenesulfonamide], the IC50 is below 100 nM.

Compound `COc1ccc(Br)cc1S(=O)(=O)Nc1cncc(-c2ccc(F)cc2)c1` [Example III-17, 5-Bromo-N-[5-(4-fluoro-phenyl)-pyridin-3-yl]-2-methoxy-benzenesulfonamide] came in with an IC50 below 100 nM.

With `COc1ccc(Cl)cc1S(=O)(=O)Nc1cncc(-c2ccc(F)cc2)c1` [Example III-18, 5-Chloro-N-[5-(4-fluoro-phenyl)-pyridin-3-yl]-2-methoxy-benzenesulfonamide], the 50% inhibitory concentration (IC50) was below 100 nM.

`COc1ccc(OC)c(S(=O)(=O)Nc2cncc(-c3ccc(Cl)cc3)c2)c1` [Example III-19, N-[5-(4-Chloro-phenyl)-pyridin-3-yl]-2,5-dimethoxy-benzenesulfonamide] displayed an IC50 of 100 to 1000 nM.

In the case of `COc1ccc(Br)cc1S(=O)(=O)Nc1cncc(-c2ccc(Cl)cc2)c1` [Example III-20, 5-Bromo-N-[5-(4-chloro-phenyl)-pyridin-3-yl]-2-methoxy-benzenesulfonamide], the IC50 fell in the range of 100 to 1000 nM.

In turn, `COc1ccc(OC)c(S(=O)(=O)Nc2cncc(-c3ccc(Br)cc3)c2)c1` [Example III-22, N-[5-(4-Bromo-phenyl)-pyridin-3-yl]-2,5-dimethoxy-benzenesulfonamide] yielded an IC50 of 100 to 1000 nM.

For `COc1ccc(Br)cc1S(=O)(=O)Nc1cncc(-c2ccc(Br)cc2)c1` [Example III-23, 5-Bromo-N-[5-(4-bromo-phenyl)-pyridin-3-yl]-2-methoxy-benzenesulfonamide], the IC50 fell in the range of 100 to 1000 nM.

Compound `COc1ccc(Cl)cc1S(=O)(=O)Nc1cncc(-c2ccc(Br)cc2)c1` [Example III-24, N-[5-(4-Bromo-phenyl)-pyridin-3-yl]-5-chloro-2-methoxy-benzenesulfonamide] returned an IC50 of 100 to 1000 nM.

The compound `COc1ccc(OC)c(S(=O)(=O)Nc2cncc(-c3ccccc3)c2)c1` [Example III-25, N-(5-Phenyl-pyridin-3-yl)-2,5-Dimethoxy-benzenesulfonamide] gave an IC50 below 100 nM.

Compound `COc1ccc(Br)cc1S(=O)(=O)Nc1cncc(-c2ccccc2)c1` [Example III-26, 5-Bromo-2-methoxy-N-(5-phenyl-pyridin-3-yl)-benzenesulfonamide] showed an IC50 below 100 nM.

Turning to `COc1ccc(Cl)cc1S(=O)(=O)Nc1cncc(-c2ccccc2)c1` [Example III-27, 5-Chloro-2-methoxy-N-(5-phenyl-pyridin-3-yl)-benzenesulfonamide], the concentration for half-maximal inhibition (IC50) was below 100 nM.

For the compound `COC(=O)c1ccc(-c2cncc(NS(=O)(=O)c3cc(OC)ccc3OC)c2)cc1` [Example III-28, 4-[5-(2,5-Dimethoxy-benzenesulfonylamino)-pyridin-3-yl]-benzoic Acid methyl ester], the IC50 is below 100 nM.

Compound `COC(=O)c1ccc(-c2cncc(NS(=O)(=O)c3cc(Br)ccc3OC)c2)cc1` [Example III-29, 4-[5-(5-Bromo-2-methoxy-benzenesulfonylamino)-pyridin-3-yl]-benzoic Acid Methyl Ester] registered an IC50 below 100 nM.

Take `COC(=O)c1ccc(-c2cncc(NS(=O)(=O)c3cc(Cl)ccc3OC)c2)cc1` [Example III-30, 4-[5-(5-Chloro-2-methoxy-benzenesulfonylamino)-pyridin-3-yl]-benzoic Acid Methyl Ester]: the IC50 was below 100 nM.

For `COc1ccc(OC)c(S(=O)(=O)Nc2cncc(-c3ccc(C#N)cc3)c2)c1` [Example III-31, N-(5-(4-Cyanophenyl)pyridin-3-yl)-2,5-dimethoxybenzenesulfonamide], the IC50 is below 100 nM.

`COc1ccc(Br)cc1S(=O)(=O)Nc1cncc(-c2ccc(C#N)cc2)c1` [Example III-32, 5-Bromo-N-(5-(4-cyanophenyl)pyridin-3-yl)-2-methoxybenzenesulfonamide] came in with an IC50 below 100 nM.

The compound `COc1ccc(Cl)cc1S(=O)(=O)Nc1cncc(-c2ccc(C#N)cc2)c1` [Example III-33, 5-Chloro-N-(5-(4-cyanophenyl)pyridin-3-yl)-2-methoxybenzenesulfonamide] showed an IC50 below 100 nM.

Regarding `COc1ccc(OC)c(S(=O)(=O)Nc2cncc(-c3ccccc3OC)c2)c1` [Example III-34, 2,5-Dimethoxy-N-[5-(2-methoxy-phenyl)-pyridin-3-yl]-benzenesulfonamide], the IC50 lay within 100 to 1000 nM.

Compound `COc1ccccc1-c1cncc(NS(=O)(=O)c2cc(Br)ccc2OC)c1` [Example III-35, 5-Bromo-2-methoxy-N-[5-(2-methoxy-phenyl)-pyridin-3-yl]-benzenesulfonamide] came in with an IC50 below 100 nM.

For the compound `COc1ccccc1-c1cncc(NS(=O)(=O)c2cc(Cl)ccc2OC)c1` [Example III-36, 5-Chloro-2-methoxy-N-[5-(2-methoxy-phenyl)-pyridin-3-yl]-benzenesulfonamide], the IC50 is below 100 nM.

`COc1ccc(OC)c(S(=O)(=O)Nc2cncc(-c3ccccc3C)c2)c1` [Example III-37, 2,5-Dimethoxy-N-(5-(o-tolyl)pyridin-3-yl)benzenesulfonamide] yielded an IC50 of 100 to 1000 nM.

`COc1ccc(Br)cc1S(=O)(=O)Nc1cncc(-c2ccccc2C)c1` [Example III-38, 5-Bromo-2-methoxy-N-(5-(o-tolyl)pyridin-3-yl)benzenesulfonamide] displayed an IC50 of 100 to 1000 nM.

The compound `COc1ccc(OC)c(S(=O)(=O)Nc2cncc(-c3ccccc3Cl)c2)c1` [Example III-40, N-[5-(2-Chloro-phenyl)-pyridin-3-yl]-2,5-dimethoxy-benzenesulfonamide] yielded an IC50 below 100 nM.

With `COc1ccc(Br)cc1S(=O)(=O)Nc1cncc(-c2ccccc2Cl)c1` [Example III-41, 5-Bromo-N-[5-(2-chloro-phenyl)-pyridin-3-yl]-2-methoxy-benzenesulfonamide], the IC50 was below 100 nM.

Regarding `COc1ccc(Cl)cc1S(=O)(=O)Nc1cncc(-c2ccccc2Cl)c1` [Example III-42, 5-Chloro-N-[5-(2-chloro-phenyl)-pyridin-3-yl]-2-methoxy-benzenesulfonamide], the half-maximal inhibitory concentration (IC50) is below 100 nM.

The compound `COc1ccc(OC)c(S(=O)(=O)Nc2cncc(-c3ccccc3C(F)(F)F)c2)c1` [Example III-43, 2,5-Dimethoxy-N-[5-(2-trifluoromethyl-phenyl)-pyridin-3-yl]-benzenesulfonamide] returned an IC50 of 100 to 1000 nM.

Take `COc1ccc(Br)cc1S(=O)(=O)Nc1cncc(-c2ccccc2C(F)(F)F)c1` [Example III-44, 5-Bromo-2-methoxy-N-[5-(2-trifluoromethyl-phenyl)-pyridin-3-yl]-benzenesulfonamide]: the IC50 lay in the range of 100 to 1000 nM.

The compound `COc1cccc(-c2cncc(NS(=O)(=O)c3cc(OC)ccc3OC)c2)c1` [Example III-46, 2,5-Dimethoxy-N-[5-(3-methoxy-phenyl)-pyridin-3-yl]-benzenesulfonamide] yielded an IC50 below 100 nM.

In the case of `COc1cccc(-c2cncc(NS(=O)(=O)c3cc(Br)ccc3OC)c2)c1` [Example III-47, 5-Bromo-2-methoxy-N-[5-(3-methoxy-phenyl)-pyridin-3-yl]-benzenesulfonamide], the IC50 was below 100 nM.

In turn, `COc1cccc(-c2cncc(NS(=O)(=O)c3cc(Cl)ccc3OC)c2)c1` [Example III-48, 5-Chloro-2-methoxy-N-[5-(3-methoxy-phenyl)-pyridin-3-yl]-benzenesulfonamide] came in with an IC50 below 100 nM.
